{"source": "patent US10098372B2", "about": "“Whitening composition and the use thereof” (INFINITUS (CHINA) COMPANY LTD, priority 2015, dated 2018)", "key": {"[1]": {"target": "T1, intracellular tyrosinase in melanoma cells from B16 mice (Mus musculus, UniProt P11344)", "T1 construct": "B16 melanin cells were adjusted with DMEM cell culture medium; endogenous in cells; host or cells: B16 mouse melanoma cells", "T1 sequence (P11344 19-533)": "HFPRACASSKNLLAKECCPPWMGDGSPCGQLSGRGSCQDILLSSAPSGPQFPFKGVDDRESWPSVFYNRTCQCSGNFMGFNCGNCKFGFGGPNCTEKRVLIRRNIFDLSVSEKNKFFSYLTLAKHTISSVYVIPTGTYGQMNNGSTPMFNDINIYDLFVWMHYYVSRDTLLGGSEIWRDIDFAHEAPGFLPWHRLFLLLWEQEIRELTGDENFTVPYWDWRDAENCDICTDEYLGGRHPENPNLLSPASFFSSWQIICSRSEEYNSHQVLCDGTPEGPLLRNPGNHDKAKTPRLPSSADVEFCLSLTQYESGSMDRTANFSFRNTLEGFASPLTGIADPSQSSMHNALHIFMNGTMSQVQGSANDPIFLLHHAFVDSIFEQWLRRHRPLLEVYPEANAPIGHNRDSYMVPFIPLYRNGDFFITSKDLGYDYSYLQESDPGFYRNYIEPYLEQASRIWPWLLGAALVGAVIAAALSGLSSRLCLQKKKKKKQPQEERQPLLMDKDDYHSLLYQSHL", "assay": "Effect on intracellular tyrosinase activity in melanoma cells from B16 mice", "assay_type": "cell-based", "conditions": "3 days, n = 4, read-out: Inhibitory rate for tyrosinase activity", "protocol": "The experiments were: B16 melanin cells were adjusted with DMEM cell culture medium containing 10% fetal bovine serum, 100 U/mL penicillin and 100 U/mL streptomycin to reach a density of 1×10^5/mL, and were seeded into 6-well cell culture plates (3 mL per well). After cultured at 37° C., 5% CO2 for 24 h, the test sample (Example 2) was added. After 3 days, the supernatant was discarded, and the cells were washed with PBS for twice. After each well was added 180 μL PBS solution containing 1% (v/v) Triton X-100, the cells were subjected to ultrasonication under ice bath, then each well was added 20 μL 10 mmol/L of L-DOPA, incubated at 37° C. for 60 min. A 1500 r/min centrifugation was conducted for 5 min. 100 μL was respectively taken and transferred to a 96-well cell culture plate, and tested for absorbance at 492 nm via a microplate reader to calculate the inhibitory rate for intracellular tyrosinase activity. The control wells were added with the same volume amount of PBS as that of the sample. The positive control employs arbutin, at an effect concentration of 200 μM. Inhibition rate=(1−A/B)×100%\nwherein A is the mean absorbance of the wells containing drug (i.e., sample wells or positive control wells), B is the mean absorbance of the control wells."}, "[2]": {"system": "melanoma cells from B16 mice", "assay": "Effect on melanin content (melanin synthesis) in melanoma cells from B16 mice", "assay_type": "cell-based", "conditions": "Mus musculus, 72 h, 3 days, n = 4, read-out: The inhibitory rate for melanin synthesis", "protocol": "The experiments were: melanoma cells from B16 mice (purchased from Shanghai Fuxiang Biotechnology Co., Ltd.) were adjusted with DMEM cell culture medium containing 10% fetal bovine serum, 100 U/mL penicillin and 100 U/mL streptomycin to reach a density of 1×10^5/mL, and were seeded into 6-well cell culture plates (3 mL per well). After cultured at 37° C., 5% CO2 for 24 h, the test sample (Example 2) was added. After 3 days, the supernatant was discarded, and the cells were washed with PBS, then added with trypsin to degest the cells for 3 min (0.5 mL per well). Afterwards, 2 mL cell culture medium was added to terminate the digestion reaction, and cells of each group were counted. After centrifugation, the supernatant was discarded, and 0.5 mL of 1 mol/L NaOH solution was added. After vibrated for 1 h, a 1500 r/min centrifugation was conducted for 5 min. 200 μL was respectively taken and transferred to a 96-well cell culture plate, and tested for absorbance at 450 nm via a microplate reader to calculate the inhibitory rate for melanin synthesis. In the experiment, the control wells were added with the same volume amount of PBS as that of the sample. […]\nA is the absorbance of the wells containing drug (i.e., sample wells or positive control wells), B is the number of cells in the wells containing drug, C the absorbance of the control wells, D is the number of cells in control wells."}}}
{"smiles": "OC[C@H]1O[C@@H](Oc2ccc(O)cc2)[C@H](O)[C@@H](O)[C@@H]1O", "note": "[Arbutin]", "values": [{"measurement": "inhibition at 400 µM", "setting": "[1]", "value": "49 ± 9.44", "unit": "%"}, {"measurement": "inhibition at 200 µM", "setting": "[2]", "value": "46.7 ± 10", "unit": "%"}]}
